Results reported in PubChem BioAssay (NCI).
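Test compounds were applied to cells in 96-well plates for 48 hours at 5 doses. GI50: concentration for 50% inhibition of growth. At the TGI there is no net growth.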

Assays:
Assay in all cases: NCI anticancer screen, dose series, 48 h
HOP-62 NSCLC = system: HOP-62 NSCLC
IGROV1 ovarian = system: IGROV1 ovarian
UACC-62 melanoma = system: UACC-62 melanoma
KM12 colon = system: KM12 colon
DU-145 prostate = system: DU-145 prostate
HCT-15 colon = system: HCT-15 colon
MOLT-4 leukemia = system: MOLT-4 leukemia
MDA-MB-435 = system: MDA-MB-435
NCI-H226 lung = system: NCI-H226 lung
SF-539 CNS = system: SF-539 CNS
SF-268 CNS = system: SF-268 CNS
OVCAR-5 ovarian = system: OVCAR-5 ovarian
SW-620 colon = system: SW-620 colon
OVCAR-8 ovarian = system: OVCAR-8 ovarian
SK-MEL-2 melanoma = system: SK-MEL-2 melanoma
BT-549 breast = system: BT-549 breast
HCT-116 colon = system: HCT-116 colon
HOP-92 NSCLC = system: HOP-92 NSCLC
SN12C renal = system: SN12C renal
OVCAR-3 ovarian = system: OVCAR-3 ovarian
SNB-19 CNS = system: SNB-19 CNS
NCI-H522 lung = system: NCI-H522 lung
LOX IMVI melanoma = system: LOX IMVI melanoma
NCI/ADR-RES ovarian = system: NCI/ADR-RES ovarian
NCI-H23 lung = system: NCI-H23 lung
MALME-3M melanoma = system: MALME-3M melanoma
PC-3 prostate = system: PC-3 prostate
ACHN renal = system: ACHN renal
U251 CNS = system: U251 CNS
CAKI-1 renal = system: CAKI-1 renal
HCC-2998 colon = system: HCC-2998 colon
A498 renal = system: A498 renal
SK-OV-3 ovarian = system: SK-OV-3 ovarian
UACC-257 melanoma = system: UACC-257 melanoma
SR leukemia = system: SR leukemia
786-0 renal = system: 786-0 renal
HS 578T breast = system: HS 578T breast
HT29 colon = system: HT29 colon
HL-60(TB) leukemia = system: HL-60(TB) leukemia
COLO 205 colon = system: COLO 205 colon
UO-31 renal = system: UO-31 renal
M14 melanoma = system: M14 melanoma
SNB-75 CNS = system: SNB-75 CNS
RXF 393 renal = system: RXF 393 renal
RPMI-8226 leukemia = system: RPMI-8226 leukemia
NCI-H460 lung = system: NCI-H460 lung
SK-MEL-28 melanoma = system: SK-MEL-28 melanoma
SF-295 CNS = system: SF-295 CNS
TK-10 renal = system: TK-10 renal
SK-MEL-5 melanoma = system: SK-MEL-5 melanoma
A549 NSCLC = system: A549 NSCLC
CCRF-CEM leukemia = system: CCRF-CEM leukemia
OVCAR-4 ovarian = system: OVCAR-4 ovarian

Q: What does the source list for `COc1ccc2nc3cc(Cl)ccc3c(N3CCN(c4ccnc(N5CCN(C)CC5)n4)CC3)c2c1`?
A: GI50 (HOP-62 NSCLC): 3.51 µM; TGI (HOP-62 NSCLC): 12.4 µM; GI50 (IGROV1 ovarian): 2.24 µM; TGI (IGROV1 ovarian): 5.08 µM; GI50 (UACC-62 melanoma): 1.86 µM; TGI (UACC-62 melanoma): 3.69 µM; GI50 (KM12 colon): 2.09 µM; TGI (KM12 colon): 4.38 µM; GI50 (DU-145 prostate): 1.84 µM; TGI (DU-145 prostate): 3.36 µM; GI50 (HCT-15 colon): 1.6 µM; TGI (HCT-15 colon): 3.21 µM; GI50 (MOLT-4 leukemia): 2.38 µM; TGI (MOLT-4 leukemia): 5.81 µM; GI50 (MDA-MB-435): 1.79 µM; TGI (MDA-MB-435): 3.66 µM; GI50 (NCI-H226 lung): 49.6 µM; TGI (NCI-H226 lung): > 100 µM; GI50 (SF-539 CNS): 1.77 µM; TGI (SF-539 CNS): 3.3 µM; GI50 (SF-268 CNS): 1.99 µM; TGI (SF-268 CNS): 3.89 µM; GI50 (OVCAR-5 ovarian): 1.81 µM; TGI (OVCAR-5 ovarian): 3.9 µM; GI50 (SW-620 colon): 1.8 µM; TGI (SW-620 colon): 3.53 µM; GI50 (OVCAR-8 ovarian): 1.93 µM; TGI (OVCAR-8 ovarian): 3.98 µM; GI50 (SK-MEL-2 melanoma): 3.72 µM; TGI (SK-MEL-2 melanoma): 12.2 µM; GI50 (BT-549 breast): 3.16 µM; TGI (BT-549 breast): 13.4 µM; GI50 (HCT-116 colon): 1.61 µM; TGI (HCT-116 colon): 3.05 µM; GI50 (HOP-92 NSCLC): 1.59 µM; TGI (HOP-92 NSCLC): 3.36 µM; GI50 (SN12C renal): 2.84 µM; TGI (SN12C renal): 8.37 µM; GI50 (OVCAR-3 ovarian): 1.84 µM; TGI (OVCAR-3 ovarian): 3.25 µM; GI50 (SNB-19 CNS): 2.23 µM; TGI (SNB-19 CNS): 5.44 µM; GI50 (NCI-H522 lung): 1.61 µM; TGI (NCI-H522 lung): 3.13 µM; GI50 (LOX IMVI melanoma): 1.89 µM; TGI (LOX IMVI melanoma): 3.45 µM; GI50 (NCI/ADR-RES ovarian): 3.66 µM; TGI (NCI/ADR-RES ovarian): 12.4 µM; GI50 (NCI-H23 lung): 2.02 µM; TGI (NCI-H23 lung): 4.17 µM; GI50 (MALME-3M melanoma): 2.2 µM; TGI (MALME-3M melanoma): 4 µM; GI50 (PC-3 prostate): 1.92 µM; TGI (PC-3 prostate): 3.87 µM; GI50 (ACHN renal): 1.75 µM; TGI (ACHN renal): 3.33 µM; GI50 (U251 CNS): 1.77 µM; TGI (U251 CNS): 3.43 µM; GI50 (CAKI-1 renal): 1.57 µM; TGI (CAKI-1 renal): 3.07 µM; GI50 (HCC-2998 colon): 1.99 µM; TGI (HCC-2998 colon): 3.69 µM; GI50 (A498 renal): 10.3 µM; TGI (A498 renal): 40.7 µM; GI50 (SK-OV-3 ovarian): 12.9 µM; TGI (SK-OV-3 ovarian): 26.2 µM; GI50 (UACC-257 melanoma): 11.4 µM; TGI (UACC-257 melanoma): 24.4 µM; GI50 (SR leukemia): 2.19 µM; TGI (SR leukemia): 5.94 µM; GI50 (786-0 renal): 1.61 µM; TGI (786-0 renal): 3 µM; GI50 (HS 578T breast): 2.7 µM; TGI (HS 578T breast): 8.29 µM; GI50 (HT29 colon): 1.74 µM; TGI (HT29 colon): 3.67 µM; GI50 (HL-60(TB) leukemia): 2.14 µM; TGI (HL-60(TB) leukemia): 5.03 µM; GI50 (COLO 205 colon): 1.94 µM; TGI (COLO 205 colon): 3.67 µM; GI50 (UO-31 renal): 1.77 µM; TGI (UO-31 renal): 3.41 µM; GI50 (M14 melanoma): 2.04 µM; TGI (M14 melanoma): 4.06 µM; GI50 (SNB-75 CNS): 1.47 µM; TGI (SNB-75 CNS): 3.05 µM; GI50 (RXF 393 renal): 1.36 µM; TGI (RXF 393 renal): 2.78 µM; GI50 (RPMI-8226 leukemia): 2.04 µM; TGI (RPMI-8226 leukemia): 4.84 µM; GI50 (NCI-H460 lung): 2.29 µM; TGI (NCI-H460 lung): 5.43 µM; GI50 (SK-MEL-28 melanoma): 1.73 µM; TGI (SK-MEL-28 melanoma): 3.29 µM; GI50 (SF-295 CNS): 19.5 µM; TGI (SF-295 CNS): 54.1 µM; GI50 (TK-10 renal): 1.76 µM; TGI (TK-10 renal): 3.2 µM; GI50 (SK-MEL-5 melanoma): 11.3 µM; TGI (SK-MEL-5 melanoma): 28 µM; GI50 (A549 NSCLC): 14.8 µM; TGI (A549 NSCLC): 36 µM; GI50 (CCRF-CEM leukemia): 1.61 µM; TGI (CCRF-CEM leukemia): 4.15 µM; GI50 (OVCAR-4 ovarian): 1.61 µM; TGI (OVCAR-4 ovarian): 3.02 µM
